# Results from patent US20240327311A1, “Benzothiazole Derivative as a Urease Inhibitor for Fertilizer Application” (Sabic Agri-Nutrients Company, priority 2021, published 2024).
# pIC50: −log10 of the molar value.
# How the values were obtained:
# [1] = target: urease (Canavalia ensiformis, UniProt P07374); details: cited from earlier work
# [2] = Thermogravimetric analysis and isothermal study under air; assay type: physicochemical; details: air atmosphere
# [3] = similar conditions; U.S. Pat. No. 10,640,430; cited from earlier work
# [4] = similar storage conditions; Soil Use and Management, 2008, 24, 246; cited from earlier work
# urease, sequence (P07374 whole entry, looked up): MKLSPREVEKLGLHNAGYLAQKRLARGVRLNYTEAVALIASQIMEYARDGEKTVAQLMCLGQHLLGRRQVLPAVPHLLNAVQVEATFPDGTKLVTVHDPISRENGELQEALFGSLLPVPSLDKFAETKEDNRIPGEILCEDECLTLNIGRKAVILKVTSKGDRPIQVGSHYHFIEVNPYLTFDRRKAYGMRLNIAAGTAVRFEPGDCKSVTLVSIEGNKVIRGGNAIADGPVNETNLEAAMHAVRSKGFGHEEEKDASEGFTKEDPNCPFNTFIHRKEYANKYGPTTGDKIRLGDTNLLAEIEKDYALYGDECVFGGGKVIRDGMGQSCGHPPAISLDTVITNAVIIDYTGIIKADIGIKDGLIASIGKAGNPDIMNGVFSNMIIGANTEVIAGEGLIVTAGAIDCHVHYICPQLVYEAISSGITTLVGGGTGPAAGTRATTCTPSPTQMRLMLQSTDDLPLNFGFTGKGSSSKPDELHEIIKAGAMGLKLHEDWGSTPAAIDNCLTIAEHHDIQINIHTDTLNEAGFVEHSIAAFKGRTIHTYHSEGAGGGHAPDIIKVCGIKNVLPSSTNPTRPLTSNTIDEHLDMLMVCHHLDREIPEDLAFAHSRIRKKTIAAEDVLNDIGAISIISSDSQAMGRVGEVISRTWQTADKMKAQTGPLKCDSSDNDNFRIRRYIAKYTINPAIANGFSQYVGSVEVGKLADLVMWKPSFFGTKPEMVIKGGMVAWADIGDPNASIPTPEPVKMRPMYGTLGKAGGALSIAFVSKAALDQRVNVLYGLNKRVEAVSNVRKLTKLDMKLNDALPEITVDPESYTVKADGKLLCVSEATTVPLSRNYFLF
compound,measurement,setting,value
NP(N)(=O)Nc1ccccc1[N+](=O)[O-],pIC50,[1],8.52
"Oc1cccc(-c2nc3ccccc3s2)c1 [BZT, 2-(3-Hydroxyphenyl) benzothiazole]",amount of BZT lost (isothermal study),"[2]; 140° C., 40 minutes",about 0.26%
same,onset of degradation (TGA),[2],255.1 °C
"CCCCNP(N)(N)=S [NBTPT, N-(n-butyl) thiophosphoric triamide]",degradation under urea melt conditions,[3],significant degradation
same,storage stability,[4],unstable
CCCCNP(N)(N)=S [drawing 22],pIC50,[1],7.00
